Experimental findings from ChEMBL document CHEMBL3091292, “Towards tropomyosin-related kinase B (TrkB) receptor ligands for brain imaging with PET: radiosynthesis and evaluation of 2-(4-[(18)F]fluorophenyl)-7,8-dihydroxy-4H-chromen-4-one and 2-(4-([N-methyl-(11)C]-dimethylamino)phenyl)-7,8-dihydroxy-4H-chromen-4-one” (Bioorg Med Chem, 2013) are described below.

In data set [1] the test system is Brain. Briefly: Biodistribution in Sprague-Dawley rat brain assessed as drug level per body weight at 230 to 876 uCi, iv after 60 mins by PET imaging analysis. The data set is classed as ADME, organism-based. As to conditions: in vivo, 1 h; call rule not given here.
Data set [2] can be described thus: Half life in rat plasma by HPLC analysis. The class given is ADME, cell-free.
Data set [3] in a line: Octanol-phosphate buffered saline partition coefficient, log D of the compound at pH 7.4 by shake-flask method. The data set is classed as physicochemical.
Data set [4] is described as follows: Plasma protein binding in rat after 15 mins. The data set is classed as ADME, cell-free. As to conditions: read-out: PPB (converted).
In data set [5] the test system is Rattus norvegicus. Description: Biodistribution in Sprague-Dawley rat whole brain assessed as drug level per body weight at 230 to 876 uCi, iv after 30 mins by PET imaging analysis. The class given is ADME, organism-based. As to conditions: in vivo, 0.5 h.
Data set [6] concerns Cortex. Briefly: Biodistribution in rat cortex after 65 mins by autoradiography relative to control in presence of BDNF. To be noted: in vivo. The data set is classed as ADME, organism-based.
The test system of data set [7] is Cortex. Briefly: Biodistribution in rat cortex after 65 mins by autoradiography relative to control in presence of 7,8-dihydroxyflavone. The class given is ADME, organism-based. As to conditions: in vivo.
Data set [8] relates to Hippocampus. Briefly: Biodistribution in rat hippocampus after 65 mins by autoradiography relative to control in presence of 7,8-dihydroxyflavone. The class given is ADME, organism-based. As to conditions: in vivo.
Data set [9] concerns Aorta. Description: Biodistribution in Sprague-Dawley rat aorta assessed as drug level per body weight at 230 to 876 uCi, iv after 30 mins by PET imaging analysis. The class given is ADME, organism-based. As to conditions: in vivo, 0.5 h.
The test system of data set [10] is Thalamus. Description: Biodistribution in rat thalamus after 65 mins by autoradiography relative to control in presence of 7,8-dihydroxyflavone. The class given is ADME, organism-based. To be noted: in vivo.
Data set [11] has as its system Striatum. Description: Biodistribution in rat striatum after 65 mins by autoradiography relative to control in presence of BDNF. The class given is ADME, organism-based. As to conditions: in vivo.
Data set [12] has as its system Hippocampus. Description: Biodistribution in rat hippocampus after 65 mins by autoradiography relative to control in presence of BDNF. The data set is classed as ADME, organism-based. As to conditions: in vivo.
Data set [13] concerns Hippocampus. Description: Biodistribution in rat hippocampus after 65 mins by autoradiography. To be noted: in vivo. The data set is classed as ADME, organism-based.
Data set [14] is filed under the species Rattus norvegicus. Briefly: Biodistribution in rat caudate putamen after 65 mins by autoradiography. The data set is classed as ADME, organism-based. As to conditions: in vivo.
Data set [15] in a line: Drug degradation in rat plasma after 90 mins by HPLC analysis. As to conditions: read-out: Drug degradation. The data set is classed as ADME, cell-free.
The test system of data set [16] is Kidney. Description: Biodistribution in Sprague-Dawley rat kidney assessed as drug level per body weight at 230 to 876 uCi, iv after 60 mins by PET imaging analysis. The class given is ADME, organism-based. As to conditions: in vivo, 1 h.
Data set [17] has as its system Striatum. Briefly: Biodistribution in rat striatum after 65 mins by autoradiography relative to control in presence of 7,8-dihydroxyflavone. The class given is ADME, organism-based. To be noted: in vivo.
Data set [18] has as its system Cerebellum. Description: Biodistribution in rat cerebellum after 65 mins by autoradiography. The class given is ADME, organism-based. To be noted: in vivo.
Data set [19] has as its system Cerebellum. Briefly: Biodistribution in rat cerebellum after 65 mins by autoradiography relative to control in presence of 7,8-dihydroxyflavone. The class given is ADME, organism-based. As to conditions: in vivo.
Data set [20] concerns Liver. Briefly: Biodistribution in Sprague-Dawley rat liver assessed as drug level per body weight at 230 to 876 uCi, iv after 120 mins by PET imaging analysis. To be noted: in vivo, 2 h. The data set is classed as ADME, organism-based.
The subject of data set [21] is Thalamus. Briefly: Biodistribution in rat thalamus after 65 mins by autoradiography. The data set is classed as ADME, organism-based. To be noted: in vivo.
The subject of data set [22] is Cerebellum. Briefly: Biodistribution in rat cerebellum after 65 mins by autoradiography relative to control in presence of BDNF. The data set is classed as ADME, organism-based. To be noted: in vivo.
The test system of data set [23] is Thalamus. Description: Biodistribution in rat thalamus after 65 mins by autoradiography relative to control in presence of BDNF. As to conditions: in vivo. The data set is classed as ADME, organism-based.
In data set [24] the test system is Cerebral cortex. Description: Biodistribution in rat cerebral cortex after 65 mins by autoradiography. The class given is ADME, organism-based. To be noted: in vivo.
For data set [25], the target named is BDNF/NT-3 growth factors receptor (Homo sapiens, UniProt Q16620). Briefly: Binding affinity to TrkB receptor extracellular domain (unknown origin) after 10 mins by liquid Scatchard plot analysis.
BDNF/NT-3 growth factors receptor, sequence (Q16620 whole entry, the tested form may be a part): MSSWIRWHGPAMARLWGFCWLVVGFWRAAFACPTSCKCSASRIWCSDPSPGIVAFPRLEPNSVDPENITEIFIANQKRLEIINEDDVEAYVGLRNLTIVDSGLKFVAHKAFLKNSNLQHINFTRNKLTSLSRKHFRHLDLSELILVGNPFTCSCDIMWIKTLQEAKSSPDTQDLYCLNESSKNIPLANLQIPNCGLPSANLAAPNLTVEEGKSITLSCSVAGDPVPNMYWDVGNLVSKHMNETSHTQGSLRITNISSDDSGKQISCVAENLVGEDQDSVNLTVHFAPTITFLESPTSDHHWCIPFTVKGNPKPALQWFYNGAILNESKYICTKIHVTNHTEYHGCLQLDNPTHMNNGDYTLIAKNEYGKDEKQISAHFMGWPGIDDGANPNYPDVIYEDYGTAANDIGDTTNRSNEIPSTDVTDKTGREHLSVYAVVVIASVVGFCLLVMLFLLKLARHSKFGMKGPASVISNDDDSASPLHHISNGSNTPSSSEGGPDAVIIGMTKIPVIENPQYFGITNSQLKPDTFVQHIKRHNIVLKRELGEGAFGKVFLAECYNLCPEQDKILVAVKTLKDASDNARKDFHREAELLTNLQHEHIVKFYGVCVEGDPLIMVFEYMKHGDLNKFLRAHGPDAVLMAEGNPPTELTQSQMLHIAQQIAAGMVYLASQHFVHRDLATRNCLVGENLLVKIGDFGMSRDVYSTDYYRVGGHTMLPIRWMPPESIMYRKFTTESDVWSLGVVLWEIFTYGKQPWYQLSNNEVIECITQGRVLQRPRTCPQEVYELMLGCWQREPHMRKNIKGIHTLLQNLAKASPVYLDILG

In general, half-life refers to how long it takes for the measured level to halve. A higher half-life goes with slow decline. What is called logD is lipophilicity at a set pH, counting ionised and neutral species. With `CN([11CH3])c1ccc(-c2cc(=O)c3ccc(O)c(O)c3o2)cc1`, in data set [1], the SUV is 0.7. Moreover, the half-life in [2] is 10 min. The compound further had a logD in [3] of 2.8. For the same compound, the fraction unbound at 0.25 h in data set [4] was 0.81.

For `O=c1cc(-c2ccc([18F])cc2)oc2c(O)c(O)ccc12`, the SUV in data set [5] came to 0.64; in [9] it was 6.62; in [16], 4.38; in [20], 6.8. The compound also returned a pH-dependent lipophilicity (logD) in [3] of 2.2. In addition, the Drug uptake is recorded as 16% in data set [6]; 17% in data set [7]; 18% in [8]; 19% in [10]; 14% in data set [11]; 10% in data set [12]. Moreover, the Drug uptake entry in [13] was “Active”; in [14], “Active”; in data set [17], 21%; in data set [18], “Active”; in data set [19], 23%; in data set [21] it was “Active”. Also, the Drug uptake in [22] is given as 12%; in [23], 11%; in data set [24] it was “Active”. Further, in data set [15], the metabolised at 1.5 h was found to be 10%. Also, in [4], the fraction unbound at 0.25 h was 0.76.

Broadly, the Kd is a measure of binding affinity in units of concentration. A low value points to tighter binding. `O=c1cc(-c2ccccc2)oc2c(O)c(O)ccc12` [7,8-DIHYDROXYFLAVONE] yielded a Kd in data set [25] of 320 nM.
